Patent US8748566B2, “Pharmacologically active antiviral peptides and methods of use” (priority 2000, dated 2014)

Columns and labels:
Type in all cases: cell-based
Vero cells = assay: Trypan-blue exclusion assay (cytotoxicity)
Protocol: Uninfected Vero cells in serum-free or serum-supplemented DMEM where treated for 1 hour at 37° C. with antiviral peptide SEQ ID NO:1 or control peptide EBX (SEQ ID NO:17), rinsed with PBS, stained for […] at 23° C. with 0.4% trypan-blue in PBS, rinsed again with PBS and air dried.

HSV-1 KOS = assay: Plaque reduction assay, HSV-1 KOS infection of Vero cell cultures
Protocol: The procedures for growing Vero cells and preparing high titer stocks of HSV-1 KOS as described in (Grau et al., Invest. Ophthal. and Vis. Sci. 30: 2474 (1989)) were utilized. Vero cells were maintained in carbonate-buffered DMEM supplemented with 5% calf serum and 5% fetal bovine serum (regular medium). For some studies, cells were switched to serum-free DMEM buffered with 25 mM Hepes (pH 7.4) and allowed to adapt to that medium for 30 min prior to experimental treatments. Vero cells were seeded into wells (0.28 cm^2) of microtiter plates either at 3.5×10^4 cells/well for use 1 day later (8×10^4 cells/well) or at 1×10^4 cells/well for use 3 days later (2×10^5 cells/well).
Confluent Vero cell cultures in microtiter plates were infected for 1 hour at 37° C. in 40 μl of medium. Except where indicated, peptide treatments in 40 μl of medium lasted from 1 hour before through 1 hour after infection. At the end of the adsorption period, the cultures were re-fed with 100 μl of regular medium. Plaque formation was scored 2 days later and the number of plaques scored per well was normalized to the number counted in the absence of peptide. Using an ocular micrometer, plaque size ([…]) was determined by measuring the largest plaque diameter (L) and the diameter at a 90° angle to that (S). The size of each of the first 40 scored plaques was measured except when a plaque included less than 10 rounded cells or touched the side of the well.

hrR3 [1] = assay: Virucidal assay; conditions: overnight dialysis against serum-containing medium
Protocol: […] The treated virus was diluted 200-fold with serum-supplemented DMEM and assayed for infectivity approximately 1 hour later in microtiter wells seeded with Vero cells (3.5×10^4 cells/well) 1 d earlier. Forty or 100 microliter volumes of diluted virus were adsorbed for 1 or 2 h at 37° C. and lacZ^+ cells were scored 8 hours later. In some experiments, aliquots of diluted virus were first dialyzed (Spectra/Por; MWCO 12-14,000) overnight at 4° C. against a 60-fold excess volume of Hepes-buffered serum-supplemented DMEM or forced by syringe through 0.22 μm membranes (Millex-GV; Millipore) before the remaining infectious virus was assayed.

hrR3 [2] = assay: LacZ+ virus (hrR3) entry assay
Protocol: Confluent Vero cell cultures in 96-well microtiter plates were switched to Hepes-buffered serum-free DMEM, cooled on ice to 4° C. for 30 min, and infected with hrR3 for 1 hour at 4° C. in 40 μl of medium. Unattached virus was removed by rinsing with ice-cold medium. Treatments with antiviral peptide SEQ ID NO:1, referred to as EB, or a control peptide which comprised the RRKK tetra-peptide (SEQ ID NO:16) attached to a scrambled version of the membrane transiting peptide RRKKLAALPLVLAAPLAVLA (SEQ ID NO:17) (referred to as EBX), or mock-treatments with peptide-free medium were carried out in serum-free DMEM as indicated. Virus entry was initiated by transferring cultures to 37° C. To inactivate any remaining extracellular virus, cultures were rinsed with PBS and exposed to low pH citrate buffer (40 mM citric acid, 10 mM KCl, 135 mM NaCl, pH 3.0, according to Highlander et al., J. Virol. 61:3356 (1987), for 1 min at 23° C. The citrate was rinsed off with PBS and cultures were maintained in serum-supplemented DMEM until they were fixed with 0.5% gluteraldehyde in 5×PBS for 30 min at 23° C., stained for β-galactosidase activity for 1 hour or overnight at 23° C. with X-gal (Fisher Biotech; BP 1615-1) in 1×PBS containing […], 1.3 mM K4Fe(CN)6, and 1.3 mM K3Fe(CN)6, and scored for the presence of blue lacZ^+ cells.
In these studies, the hrR3 virus was pre-adsorbed to cells for 1 hour at 4° C. before ice cold 25 μM EB or EBX were added in serum-free DMEM. After an additional 1 hour at 4° C., cultures were shifted to 37° C. to initiate virus entry. At 15 min intervals following the temperature shift, any virus remaining outside the cells was inactivated by washing the cultures with low pH citrate buffer. Cultures were then rinsed and returned to peptide-free serum-supplemented DMEM until they were fixed and stained for f-galactosidase 8 hours after the temperature shift.
This conclusion is strengthened by the finding that the EB-sensitive phase of infection with pre-adsorbed virus clearly precedes expression of lacZ genes in hrR3 infected cells (FIG. 7A). Again, hrR3 was pre-adsorbed to cells for 1 hour at 4° C., unattached virus was rinsed off, and cells were kept for an additional hour at 4° C. Cultures were then transferred to 23° C. for 30 min before they were switched to 37° C. The more gradual change to 37° C. allowed cell layers to remain intact through subsequent frequent medium changes. Immediately following viral adsorption, cells were treated with 50 μM EB for 1 hour periods at consecutive 1 hour intervals. Between 1 and 4 hours post-infection, virus entry was inhibited by 70-80%. […] Parallel cultures were immediately fixed after mock-treatments and stained with X-gal. In these cultures, blue (lacZ^+) cells first appeared 7 hours post-infection and their number increased nearly linearly for the next 3 hours (FIG. 7A, (∘)). By 7 hours post-infection, EB ceased to be inhibitory.

Substance: H-RRKKAAVALLPAVLLALLAP-OH [EB]
- cytotoxic concentrations relative to antiviral concentrations (Vero cells): 100 fold
- effect on plaque size (HSV-1 KOS; EB present before and during adsorption): no effect on plaque size
- fold lower concentration blocking infections compared to control peptide EBX (HSV-1 KOS; absence of serum (FIG. 1B)): 100 fold
- effect on plaque formation (HSV-1 KOS; peptide present during infection of Vero cells with HSV-1 KOS): blocking plaque formation
- fold lower concentration blocking infections compared to control peptide EBX (HSV-1 KOS; presence of serum (FIG. 1A)): 10 fold
- combined mean plaque size (HSV-1 KOS; transient treatments with 6 and 12 μM EB (up to 1 hour post-infection)): 68,000±11,000 μm^2
- reversibility of virion inactivation (hrR3 [1]): irreversibly inactivated
- inhibition of virus entry (hrR3 [2]; 50 μM EB for 1 hour periods, between 1 and 4 hours post-infection (FIG. 7A)): 70-80%
- effect on development of lacZ+ cells (hrR3 [2]; peptide added immediately after each citrate treatment (FIG. 6B)): no longer had any effect
